# According to US20120142730A1 (priority 2010, published 2012):
# Where two headings read alike, the source gives them in different places.
# Tests used:
# relapsing MS = details: cited from earlier work; for Development of active MRI lesions in relapsing MS: Polman, 2005
# [1] = system: subjects with relapsing remitting multiple sclerosis (RRMS); test: ALLEGRO (MS-LAQ-301) phase III trial: confirmed relapse endpoints; format: in vivo, human; parameters: key to Annualized relapse rate, adjusted mean (SE): ARR = number of relapses divided by total patient exposure; details: for Annualized relapse rate, adjusted mean (SE): 24-month treatment period
# Source text: The primary endpoint of the study was the number of confirmed relapses during the double-blind treatment period, which corresponds to the annualized relapse rate (ARR—number of relapses divided by total exposure of all patients). Secondary endpoints included disability as measured by Expanded Disability Status Scale (EDSS) changes confirmed at 3 months, and cumulative number of gadolinium enhancing (GdE) and new/enlarging T2 MRI lesions. Eligible subjects were equally randomized 1:1 into one of the following treatment arms: • 1. […] 21, 2007 (see, page 10, line 5 to page 11, line 3). • 2. Matching placebo for laquinimod arm: one capsule is administered once daily. The primary endpoint was the number of confirmed relapses during the double-blind study period. A relapse was defined as the appearance of one or more new neurological abnormalities or the reappearance of one or more previously observed neurological abnormalities lasting for at least 48 hours and after an improved neurological state for at least 30 days. An event was counted as a relapse if the subject's symptoms were accompanied by observed objective neurological changes consistent with at least one of the following: an increase of at least 0.5 in the EDSS score; an increase of one grade in two or more of the seven functional systems; or an increase of two grades in one functional system. Standardized treatment of relapses was intravenous methylprednisolone 1 g/day for up to five consecutive days based on the treating neurologist's decision. The analysis of the total number of confirmed relapses during the study period is based on baseline adjusted Quasi-Likelihood (over-dispersed) Poisson Regression. Using the Poisson regression with the treatment group as a covariate, the ARR of each group was calculated for the intent-to-treat (ITT) cohort as the total number of confirmed relapses for all patients in each group divided by the total patient years in that group. In addition to the treatment group, the following covariates were included: baseline EDSS score, log of the (prior 2-year number of relapses +1) and country or geographical region.
# [2] = system: subjects with relapsing remitting multiple sclerosis (RRMS); test: ALLEGRO phase III trial: safety and tolerability; format: in vivo, human
# Procedure: Eligible subjects were equally randomized 1:1 into one of the following treatment arms: • 1. […] 21, 2007 (see, page 10, line 5 to page 11, line 3). • 2. Matching placebo for laquinimod arm: one capsule is administered once daily.
# The following assessments were performed at specified time points: • 1. Vital signs were measured at each study visit. • 2. A physical examination is performed at months −1 (screening), (baseline) 1, 3, 6, 12, 18 and 24 (termination/early discontinuation core study). In case of the 6 months extended study, additional examination was performed at month 30 (termination/early discontinuation of extended study). • 3. The following safety clinical laboratory tests were performed: • a. Complete blood count (CBC) with differential—at all scheduled visits. A reticulocyte count was added to the CBC at months 0 (baseline) and 24/30 (termination/early discontinuation). • b. Serum chemistry (including electrolytes, liver enzymes, direct and total bilirubin and pancreatic amylase and CPK), and urinalysis—at all scheduled visits. • c. A rapid urine β-hCG test was performed in women of child-bearing potential at baseline (month 0) and at each scheduled study visit thereafter (at site). • d. β-hCG in women of child-bearing potential was performed at all scheduled visits. • e. Starting after visit Month 3 a rapid urine β-hCG test was performed in women of child-bearing potential every 28 (±2) days. […] Adverse Events (AEs) are monitored throughout the study. • 9. Concomitant medications are monitored throughout the study. • 10. […] MS functional Composite (MSFC) was assessed at months −1 (screening) (three practices for training purposes only), at month 0 (baseline), 6, 12, 18 and 24 (termination/early discontinuation). […] Subject-reported fatigue was assessed by the Modified Fatigue Impact Scale (MFIS) at months 0, 6, 12, 18, and 24 (termination/early discontinuation). […] The general health status was assessed by the EuroQoL (EQ5D) questionnaire at month 0 (baseline) and month 24 (termination/early discontinuation of the study). […]
# [3] = 0.6 mg daily oral vs placebo, 24 months
# [4] = post-hoc, vs placebo, listed as laquinimod
compound,measurement,setting,value
"CCN(C(=O)c1c(O)c2c(Cl)cccc2n(C)c1=O)c1ccccc1 [Laquinimod, laquinimod]",MRI and clinical effect as compared to placebo,"relapsing MS; 0.3 mg/day oral dose, Comi, 2007",neither MRI nor clinical effect
same,Development of active MRI lesions in relapsing MS,relapsing MS; 0.3 mg/day oral dose,reduce development of active MRI lesions
same,Development of active MRI lesions in relapsing MS,relapsing MS,reduce development of active MRI lesions
same,"Annualized rate of relapses requiring hospitalization and/or IV steroids, reduction",[1]; 0.6 mg daily oral vs placebo,27% reduction
same,Increase in the time to first relapse,[1]; 0.6 mg daily oral vs placebo,28.2%
same,Time to 1st confirmed relapse: reduction for the risk of 1st confirmed relapse,[1]; 0.6 mg daily oral vs placebo,28% reduction for the
same,"Annualized relapse rate, reduction",[1]; [3],23% reduction
same,Increase in odds to be relapse free,[1]; [3],55% increase odds to
same,Increase in odds to be relapse free,"[1]; 0.6 mg daily oral vs placebo, 24 months, listed as laquinimod",55%
same,"Annualized relapse rate, adjusted mean (SE)",[1]; 0.6 mg daily oral,0.304
same,"Annualized relapse rate, adjusted mean (SE)","[1]; 0.6 mg daily oral, listed as laquinimod",0.304±0.022
same,"Annualized rate of relapses requiring hospitalization and/or IV steroids, adjusted mean","[1]; 0.6 mg daily oral, 24 months",0.242
same,"Relapse-free during study, adjusted proportion","[1]; 0.6 mg daily oral, 24 months",62.90%
same,"Relapse-free during study, adjusted proportion","[1]; 0.6 mg daily oral, 24 months, listed as laquinimod",62.9%
same,ARR 1st year,"[1]; post-hoc, 0.6 mg daily oral",0.343
same,ARR for dropouts,"[1]; post-hoc, 0.6 mg daily oral",0.640
same,Annualized rate of relapses requiring IV steroids,"[1]; post-hoc, 0.6 mg daily oral",0.263
same,Annualized rate of relapses requiring hospitalization,"[1]; post-hoc, 0.6 mg daily oral",0.071
same,Relapses with full recovery (EDSS before and after attack),"[1]; post-hoc, 0.6 mg daily oral",0.155
same,Relapses with no recovery (EDSS before and after attack),"[1]; post-hoc, 0.6 mg daily oral",0.06
same,Unconfirmed relapses,"[1]; post-hoc, 0.6 mg daily oral",0.094
same,ARR by median relapse duration,"[1]; post-hoc, relapse duration >34 days (n~100)",0.964
same,"ARR by median relapse duration, reduction","[1]; post-hoc, relapse duration >34 days (n~100), vs placebo",1.3% reduction
same,ARR by median relapse duration,"[1]; post-hoc, relapse duration ≦34 days",0.153
same,"ARR by median relapse duration, reduction","[1]; post-hoc, relapse duration ≦34 days, vs placebo",37% reduction
same,"ARR 1st year, reduction","[1]; post-hoc, vs placebo",24% reduction
same,"ARR for dropouts, reduction","[1]; post-hoc, vs placebo",26% reduction
same,"Relapses requiring IV steroids, reduction","[1]; post-hoc, vs placebo",27% reduction
same,"Relapses requiring hospitalization, reduction","[1]; post-hoc, vs placebo",38% reduction
same,"Relapses with full recovery, reduction","[1]; post-hoc, vs placebo",13% reduction
same,"Relapses with no recovery, reduction","[1]; post-hoc, vs placebo",24% reduction
same,"Unconfirmed relapses, reduction","[1]; post-hoc, vs placebo",17% reduction
same,"Relapses requiring IV steroids, reduction",[1]; [4],27%
same,"Relapses requiring hospitalization, reduction",[1]; [4],38%
same,Deaths,"[2]; 0.6 mg daily oral, 24 months",No deaths
same,Time of occurrence of ALT elevations up to 5×ULN,"[2]; human, in vivo",≤ 6 months
same,Reversibility of ALT elevations up to 5×ULN,[2]; in vivo,all were reversible
